The text below walks through data of PubChem BioAssay (NCI).

Where “and” joins values, the source holds several entries; their conditions need not be identical. Equal entries are not always repeated.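 Dose response: 5 concentrations. Exposure: 48 h. Format: 96-well plates. Endpoint: linear interpolation; highest concentration if not reached. GI50: concentration for 50% inhibition of growth. At the TGI there is no net growth.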

Some test systems named below: OVCAR-8 ovarian; OVCAR-3 ovarian; SW-620 colon; HCT-116 colon; SN12C renal; DU-145 prostate; SNB-75 CNS; ACHN renal; NCI-H460 lung; MALME-3M melanoma.
Common to all, as to assay: NCI-60 cell line screen, 48 h

On to `C=C1C(C2(C)C(OC(C)=O)CC(=O)OC(C)(COC(C)=O)C2CC(=O)OC)C(OC=O)C(OC(=O)C(O)C(C)CC)C2(C)C(c3ccoc3)CC(=O)C12O` (configuration not stated), for which the TGI in the experiment on OVCAR-8 ovarian, in the experiment on OVCAR-3 ovarian, in the experiment on SW-620 colon, in the experiment with HCT-116 colon, with SN12C renal and in the experiment on DU-145 prostate was > 100 µM in each case. Besides, the TGI was > 100 µM in the experiment on SNB-75 CNS, > 52.8 µM with ACHN renal and > 21.8 µM in the experiment on NCI-H460 lung.
`CC1=C(C(=O)Nc2ccc(Cl)c(Cl)c2)C(c2cccc(Cl)c2)NC(=O)N1` (configuration not stated): the GI50 in the experiment on OVCAR-8 ovarian was 14.8 µM; in the experiment on OVCAR-3 ovarian, 0.838 µM; in the experiment with SW-620 colon, 12.6 µM; in the experiment with HCT-116 colon it was 12 µM; in the experiment on SN12C renal it was 8.53 µM; with DU-145 prostate it was 7.58 µM. Besides, the figures for the GI50 in the experiment on SNB-75 CNS, in the experiment on ACHN renal and in the experiment with NCI-H460 lung were 9.67 µM, 9.07 µM and 8.5 µM, respectively. In addition, the TGI was > 37.7 µM in the experiment on OVCAR-8 ovarian; 9.13 µM in the experiment on OVCAR-3 ovarian; > 29.4 µM with SW-620 colon; > 50 µM in the experiment with HCT-116 colon; 16.8 µM in the experiment on SN12C renal; 14.3 µM in the experiment on DU-145 prostate. The TGI came to 28.7 µM in the experiment on SNB-75 CNS, 20.8 µM in the experiment on ACHN renal and 20.1 µM in the experiment on NCI-H460 lung.
Regarding `COc1cc(Nc2nc3ccccc3nc2NS(=O)(=O)c2ccc(NC(=O)c3ccc(C)c(OC)c3)cc2)cc(OC)c1`, the GI50 with OVCAR-8 ovarian is 4.19 µM and 20.5 µM and 2.82 µM; in the experiment with SNB-75 CNS, 1.39 µM and 1.51 µM and 0.302 µM. Besides, the TGI in the experiment with OVCAR-8 ovarian was > 100 µM; with SW-620 colon, > 100 µM; in the experiment with HCT-116 colon, > 100 µM; with SN12C renal it was > 100 µM; in the experiment on DU-145 prostate, > 100 µM; in the experiment on SNB-75 CNS it was 13.3 µM and 20 µM and 2.75 µM. Further, the TGI is 48.7 µM and 62.8 µM and > 10 µM in the experiment with ACHN renal; > 100 µM in the experiment with NCI-H460 lung.
On to `NC1CCC(Nc2nc(NCc3ccc(-c4ccccc4O)nc3)c3ncn(C4CCCC4)c3n2)CC1` (configuration not stated), for which the GI50 was 0.0288 µM with OVCAR-3 ovarian; < 0.01 µM in the experiment on SW-620 colon; 0.0317 µM in the experiment on HCT-116 colon; 0.0149 µM in the experiment on SN12C renal; 0.0344 µM in the experiment on DU-145 prostate; 0.0121 µM in the experiment with SNB-75 CNS. Besides, the GI50 with ACHN renal is 0.14 µM; in the experiment with NCI-H460 lung it was 0.0337 µM. Besides, the TGI in the experiment on OVCAR-3 ovarian was determined as 0.0899 µM; in the experiment with SW-620 colon, 1.23 µM; with HCT-116 colon, 1.15 µM; in the experiment on SN12C renal it was 1.38 µM; in the experiment with DU-145 prostate, 1.16 µM; in the experiment with SNB-75 CNS, 0.0356 µM. Besides, the TGI in the experiment with ACHN renal was found to be 1.07 µM; in the experiment on NCI-H460 lung it was 1.17 µM.
Turning to `c1ccc2c(NCCCCCCNc3c4ccccc4nc4ccccc34)c3ccccc3nc2c1`, the TGI is 3.18 µM in the experiment with OVCAR-8 ovarian; 2.21 µM in the experiment on OVCAR-3 ovarian; 2.18 µM with SW-620 colon; 0.693 µM in the experiment with HCT-116 colon; 4.25 µM in the experiment with SN12C renal; 2.49 µM with MALME-3M melanoma. Also, the TGI in the experiment on DU-145 prostate came out at 2.76 µM; in the experiment on SNB-75 CNS, 2.29 µM; with ACHN renal, 1.72 µM.
As to `O=C1O/C(=C\c2ccccc2)N(c2ccccc2)C1=O`, the TGI with OVCAR-8 ovarian, in the experiment with OVCAR-3 ovarian, with SW-620 colon, with HCT-116 colon, in the experiment with SN12C renal and in the experiment on DU-145 prostate was > 100 µM each time. The TGI in the experiment on SNB-75 CNS, with ACHN renal and in the experiment on NCI-H460 lung was > 100 µM each time.
With `C=C(C)[C@@H]1CC[C@]2(C(=O)O)CC[C@]3(C)[C@H](CC[C@@H]4[C@@]5(C)CCC(NC(=O)c6cccc(OC(C)=O)c6OC(C)=O)C(C)(C)[C@@H]5CC[C@]43C)[C@@H]12` (some centres not stated), the GI50 is 0.996 µM in the experiment with OVCAR-8 ovarian; 1.04 µM in the experiment with OVCAR-3 ovarian; 0.376 µM in the experiment with HCT-116 colon; 0.94 µM with SN12C renal; 0.317 µM with MALME-3M melanoma; 0.882 µM in the experiment with DU-145 prostate. Further, the GI50 with SNB-75 CNS was 0.452 µM; in the experiment with ACHN renal, 0.323 µM; in the experiment on NCI-H460 lung, 0.38 µM. The TGI in the experiment on OVCAR-8 ovarian was 3.24 µM; in the experiment with OVCAR-3 ovarian, 3.26 µM; with HCT-116 colon it was 1.54 µM; in the experiment with SN12C renal it was > 100 µM; in the experiment with MALME-3M melanoma it was 1.47 µM; in the experiment on DU-145 prostate it was > 100 µM. Besides, the TGI in the experiment on SNB-75 CNS stood at 5.44 µM; in the experiment with ACHN renal, 2.61 µM; with NCI-H460 lung, 1.42 µM.
In the case of `Cc1ccc(NC2=C(Cl)C(=O)N(Cc3ccc(Cl)cc3)C2=O)cc1O`, the GI50 in the experiment with OVCAR-8 ovarian is 7.1 µM; in the experiment with OVCAR-3 ovarian, 8.88 µM; with SW-620 colon, 7.76 µM; with HCT-116 colon it was 6.57 µM; with SN12C renal it was 13.3 µM; in the experiment with MALME-3M melanoma, 5.23 µM. The GI50 with DU-145 prostate is 14.9 µM; in the experiment on NCI-H460 lung it was 4.29 µM. Moreover, the TGI in the experiment on OVCAR-8 ovarian stood at 38.6 µM; with OVCAR-3 ovarian it was 38.5 µM; in the experiment on SW-620 colon, 66.6 µM; with HCT-116 colon, 29 µM; in the experiment with SN12C renal it was 30.5 µM; with MALME-3M melanoma, 26.9 µM. The TGI worked out at 40.6 µM in the experiment with DU-145 prostate and 20.5 µM with NCI-H460 lung.
`COc1ccc(/C(=N\NC(=O)C(=O)NN)C(c2ccc(OC)cc2)C2(O)C(=O)Nc3ccccc32)cc1` (configuration not stated): the TGI in the experiment with OVCAR-8 ovarian, with OVCAR-3 ovarian, with SW-620 colon, in the experiment with HCT-116 colon, with SN12C renal and with MALME-3M melanoma was > 100 µM throughout. In addition, the TGI with SNB-75 CNS, in the experiment on ACHN renal and in the experiment with NCI-H460 lung was > 100 µM in each case.
For `O=C1c2ccccc2-c2oc(=O)c3ccccc3c21`, the TGI in the experiment with OVCAR-8 ovarian, in the experiment with OVCAR-3 ovarian, with SW-620 colon, in the experiment with HCT-116 colon, in the experiment on SN12C renal and in the experiment on DU-145 prostate was > 100 µM in each case. Further, the TGI in the experiment with SNB-75 CNS, with ACHN renal and with NCI-H460 lung was > 100 µM throughout.
Take `CC(=O)CC(N)=O`: the TGI in the experiment on OVCAR-8 ovarian, with OVCAR-3 ovarian, with SW-620 colon, in the experiment with HCT-116 colon, with SN12C renal and with MALME-3M melanoma was > 100 µM each time. Moreover, the TGI with SNB-75 CNS, in the experiment on ACHN renal and in the experiment with NCI-H460 lung was > 100 µM in each case.
